Assays:
[1] = The compound was tested for its ability to inhibit Na+/K+ ATPase in rat brain.; type: tissue-based
[2] = (§1) Partition coefficient (logD7.4); conditions: octanol/water, pH 7.4
[3] = octanol/water
[4] = not given; remark: listed apart in the source
[5] = organism: Rattus norvegicus; assay: Apparent partition coefficient was measured as histamine releasing activity in rat mast cells.
[6] = molecular target: Serum albumin (Bos taurus) (UniProt P02769); assay: BSA binding (log K)
[7] = organism: Rattus norvegicus
[8] = octanol/water; remark: listed apart in the source
[9] = (§2) Partition coefficient (logD) (HPLC); type: physicochemical; conditions: octanol/water
[10] = organism: Rattus norvegicus; remark: listed apart in the source
[11] = as §2; type: physicochemical; conditions: octanol/water; remark: listed apart in the source
[12] = organism: Rattus norvegicus; remark: listed apart in the source
[13] = (§3) logD (measured by HPLC) (as log k'); type: ADME
[14] = organism: Rattus norvegicus; assay: Log (1/ED50) was measured as histamine releasing activity in rat mast cells; log(1/ED50*10e-3).; type: functional
[15] = physchem; conditions: octanol/water
[16] = physchem; conditions: octanol/water; remark: listed apart in the source
[17] = as §1; conditions: octanol/water, pH 7.4; remark: listed apart in the source
[18] = organism: Rattus norvegicus; remark: listed apart in the source
[19] = as §3; type: ADME; remark: listed apart in the source
[20] = physchem; conditions: octanol/water, pH 7.4
[21] = not given; remark: listed apart in the source
[22] = not given; remark: listed apart in the source
[23] = not given; remark: listed apart in the source
[24] = not given; remark: listed apart in the source
[25] = as §2; type: physicochemical; conditions: octanol/water; remark: listed apart in the source
[26] = not given; remark: listed apart in the source
[27] = not given; remark: listed apart in the source
[28] = not given; remark: listed apart in the source
[29] = not given; remark: listed apart in the source
[30] = as §3; type: ADME; remark: listed apart in the source
[31] = octanol/water; remark: listed apart in the source
Description: Partition coefficient (logD, measured by HPLC, log k')

[32] = not given; remark: listed apart in the source
[33] = not given; remark: listed apart in the source
[34] = as §3; type: ADME; remark: listed apart in the source
[35] = organism: Rattus norvegicus; assay: pKa value was measured by water/octanol using shake-flask method.
[36] = Dissociation constant (pKa); conditions: octanol/water, pH 7.4

SMILES | Activity [1] | Log k' | pKa [2] | Log k' [4] | Log 1/ED50 [7] | logD [9] | Papp [12] | Log k' [13] | logD [17] | Log k' [23] | other results
OCCN1CCN(CCCN2c3ccccc3Sc3ccc(Cl)cc32)CC1 [PERPHENAZINE] | 0.09 | 1.749 | 7.8 | 2.287 | 2.63 | – | – | – | – | – | logD [3]: 1.1; Papp [5]: 2.95; Log K [6]: 3.57; logD [8]: 1.473
CN1CCN(CCCN2c3ccccc3Sc3ccc(C(F)(F)F)cc32)CC1 [TRIFLUOPERAZINE] | 1.69 | 2.58 | 8.1 | 3.076 | – | 1.77 | – | – | – | – | Papp [10]: 3.9; logD [11]: 1.96
CN(C)CC/C=C1/c2ccccc2Sc2ccc(Cl)cc21 [CHLORPROTHIXENE] | – | – | – | – | – | – | 2.67 | 2.142 | – | – | Histamine release [14]: 2.57
CC(=O)c1ccc2c(c1)N(CCCN1CCN(CCO)CC1)c1ccccc1S2 [ACETOPHENAZINE] | – | 0.808 | – | 1.301 | 2.12 | – | – | – | 2.62 | – | logD [15]: 0.366; logD [16]: 0.728
CN(C)CCC=C1c2ccccc2CCc2ccccc21 [AMITRIPTYLINE] | – | – | 9.4 | 1.641 | – | 2.83 | 2.3 | 1.214 | 2.83 | 1.264 | Log 1/ED50 [18]: 1.85; Log k' [19]: 0.753; logD [20]: 2.5; Log k' [21]: 1.419; Log k' [22]: 1.279
COc1ccccc1 [ANISOLE] | – | 0.885 | – | – | – | 0.353 | – | – | 2.09 | 0.381 | logD [24]: 2.086; logD [25]: 0.872; Log k' [26]: 0.264; Log k' [27]: 0.928; Log k' [28]: 0.332
CC(CN1c2ccccc2Sc2ccccc21)N(C)C (centres undefined) [PROMETHAZINE] | -0.37 | – | – | – | 1.82 | – | – | 1.512 | 2.849 | – | Log k' [29]: 1.512; logD [20]: 2.79; Log k' [30]: 0.757; Log k' [31]: 1.595; Log k' [32]: 1.176; Log k' [22]: 1.271; Log k' [33]: 1.669; Log k' [34]: 1.252; Log k' [27]: 1.67; Log k' [28]: 1.172; pKa [35]: 9.4
CN(C)CCCN1c2ccccc2CCc2ccc(Cl)cc21 [CLOMIPRAMINE] | – | 1.593 | – | 2.072 | 2.22 | – | 2.8 | – | 3.24 | 1.041 | pKa [36]: 9.5; Log k' [26]: 1.479
